Laboratory results published in patent US20210052598A1, “COMPOSITIONS AND METHODS FOR TREATING CANCER” (Beth Israel Deaconess Medical Center, Inc., priority 2018, published 2021).
Entries after “also recorded” stand apart in the source; their conditions may differ. Where a SMILES comes first, the peptide text is derived from it. The star is where a group is joined. Cbz = O=C(OCc1ccccc1)*

Tests used:
IDH1 and IDH2 [1] = test: Immunoblot of IDH1 and IDH2 after MG132 or MLN4924, RWPE1 cells; type: cell-based; conditions: 10 μM for 8 hours
Method: RWPE1 cells were incubated with 10 μM MG132 or MLN4924 for 8 hours, followed by immunoblot analysis of IDH1 and IDH2. FIG. 16B are immunoblots showing that IDH1 specifically interacts with Cullin 1 in cells. Immunoblot analysis of immunoprecipitates (IP) and whole cell lysates (WCL) derived from HEK293 cells transfected with Flag-IDH1 and the indicated Myc-tagged Cullins for 48 hours. FIG. 16C are immunoblots showing that IDH1 specifically interacts with two F-box proteins, Skp2, and to a lesser extent, Fbw4, in cells. Immunoblot analysis of IP and WCL derived from HEK293 cells transfected with Flag-IDH1 and the indicated CMV-GST-tagged F-box proteins for 48 hours. FIG. 16D are immunoblots showing depletion of SKP2 in HeLa cells leads to accumulated IDH1. […] The labeled glycolytic intermediates were measured using HPLC-MS. n=3, * p<0.05, ** p<0.01, ***p<0.001. […] The labeled TCA cycle intermediates were measured using HPLC-MS. n=3, * p<0.05, ** p<0.01, *** p<0.001.
(§1) Cells were lysed in EBC buffer (50 mM Tris pH 7.5, 120 mM NaCl, 0.5% NP-40) supplemented with protease inhibitors (cOmplete Mini, Roche) and phosphatase inhibitors (phosphatase inhibitor cocktail set I and II, Calbiochem). The protein concentrations of the lysates were measured using the Bio-Rad protein assay reagent on a Beckman Coulter DU-800 spectrophotometer. […]

22-Rv1 cells = test: Colony formation assay, 22-Rv1 cells; type: cell-based, human; conditions: 22-Rv1, 1500 cell/well, 0, 0.1, 0.3, or 1 μM for 7 days, fresh media another 3 weeks
Method: (§2) 22-Rv1 cells were treated with 0, 1, 3, 10, or 30 μM SKPin C1 for 24 hours, and then harvested for immunoblot analysis. […] LNCaP and 22-Rv1 cells were plated in 6-well plate (1500 cell/well), treated with 0, 0.1, 0.3, or 1 μM Skin C1 for 7 days, and changed to fresh media for another 3 weeks. […] HAP1-IDH1^−/−, HAP1-IDH2^−/− and parental cells were treated with 3 μM SKPin C1 for 24 hours, followed by OCR analysis by Seahorse XF 24 analyzer. * p<0.05.
(§3) Cells were cultured in 10% FBS containing DMEM or RPMI-1640 media before plating into 6-well plate at 10,000 cells (3,000 cells for HeLa) per well. Ten days later, cells were fixed with 10% acetic acid/10% methanol for 10 min, stained with 0.4% crystal violet/20% ethanol, followed by counting the colony numbers. For soft agar assays, cells were seeded in 0.4% low-melting-point agarose in DMEM or RPMI-1640 with 10% FBS at 100,000 per well (30,000 cells for HeLa), layered onto 0.8% agarose in DMEM or RPMI-1640 with 10% FBS. The plates were kept in the cell culture incubator for 3-4 weeks after which the cells were stained with iodonitrotetrazolium chloride and colonies were counted.

HAP1 cells [2] = test: Seahorse XF24 oxygen consumption rate (OCR) analysis, HAP1 cells; type: cell-based, human
Method: (§4) LNCaP cells were treated with 0, 1, 3, 10 or 30 μM SKPin C1 for 24 hours, harvested for immunoblot analysis of indicated proteins. […] 22Rv1 cells were treated with 10 μM SKPin C1 for 24 hours, harvested for fraction of cytoplasm (C), mitochondria (M), and nuclei (N), followed by immunoblot analysis of indicated proteins. FIG. 11C is a graph showing depletion of endogenous ID111 or IDH2 abolishes the effect of SKPin C1 on OCR. HAP1-IDH1^−/−, IDH2^−/− and parental cells were treated with 3 μM SKPin C1 for 24 hours, followed by OCR analysis by Seahorse XF 24 analyzer. The concentration of oligomycin, FCCP and antimycin A are 1 μM, 0.6 μM and 3 μM, respectively (mean±s.e.m, n=3). […] HAP1-Skp2^+/+ and Skp2^−/− cells were treated with indicated SKPin C1 for 24 hours, followed by immunoblot analysis for indicated proteins. […] Statistical analysis, ** p<0.01. […] Statistical analysis, * p<0.05, ** p<0.01. […] HAP1-Skp2^+/+ and Skp2^−/− cells were treated with 1 μM SKPin C1 for 24 hours, followed by ECAR analysis by Seahorse XF 24 analyzer. […] HAP1-Skp2^+/+ and Skp2^−/− cells were treated with 1 μM SKPin C1 for 24 hours, followed by OCR analysis by Seahorse XF 24 analyzer. […]
(§5) Oxygen consumption rate (OCR) and extracellular acidification rate (ECAR) were measured using Seahorse XF24 analyzer (Boston, Mass., USA). […]

IDH1 and IDH2 [3] = test: Immunoblot of IDH1 and IDH2 after SKPin C1 treatment, LNCaP cells; type: cell-based, human; conditions: LNCaP cells, 0, 1, 3, 10 or 30 μM for 24 hours
Method: (§6) LNCaP cells were treated with 0, 1, 3, 10 or 30 μM SKPin C1 for 24 hours, harvested for immunoblot analysis of indicated proteins. […] 22Rv1 cells were treated with 10 μM SKPin C1 for 24 hours, harvested for fraction of cytoplasm (C), mitochondria (M), and nuclei (N), followed by immunoblot analysis of indicated proteins. FIG. 11C is a graph showing depletion of endogenous ID111 or IDH2 abolishes the effect of SKPin C1 on OCR. HAP1-IDH1^−/−, IDH2^−/− and parental cells were treated with 3 μM SKPin C1 for 24 hours, followed by OCR analysis by Seahorse XF 24 analyzer. The concentration of oligomycin, FCCP and antimycin A are 1 μM, 0.6 μM and 3 μM, respectively (mean±s.e.m, n=3). […] HAP1-Skp2^+/+ and Skp2^−/− cells were treated with indicated SKPin C1 for 24 hours, followed by immunoblot analysis for indicated proteins. […] Statistical analysis, ** p<0.01. […] Statistical analysis, * p<0.05, ** p<0.01. […]
as §1

IDH1 and IDH2 [4] = test: Immunoblot of IDH1 and IDH2 after SKPin C1 treatment, 22-Rv1 cells; type: cell-based, human; conditions: 22-Rv1 cells, 0, 1, 3, 10, or 30 μM for 24 hours
Method: as §2
HeLa and HCT116 cells were used for synchronization. HeLa cells, which have low endogenous Skp2 activity, were used for ectopic expression-based degradation assays. HEK293 cell line was used for ubiquitination assays and co-IP assays to define the interaction between two ectopically expressed proteins, which is the most frequently used cell line for this type of experiment. Human prostate cancer cells, DU145, PC3, LNCaP, VCaP, 22Rv1 and C4-2 were used for compared endogenous Skp2 and IDH1 levels, as well as Skp2 knockdown and Skp2 overexpression. […]
as §1

IDH1 and IDH2 [5] = test: Fractionation of cytoplasm, mitochondria and nuclei with immunoblot, 22Rv1 cells; type: cell-based, human; conditions: 10 μM for 24 hours
Method: LNCaP cells were treated with 0, 1, 3, 10 or 30 μM SKPin C1 for 24 hours, harvested for immunoblot analysis of indicated proteins. […] 22Rv1 cells were treated with 10 μM SKPin C1 for 24 hours, harvested for fraction of cytoplasm (C), mitochondria (M), and nuclei (N), followed by immunoblot analysis of indicated proteins. FIG. 11C is a graph showing depletion of endogenous ID111 or IDH2 abolishes the effect of SKPin C1 on OCR. HAP1-IDH1^−/−, IDH2^−/− and parental cells were treated with 3 μM SKPin C1 for 24 hours, followed by OCR analysis by Seahorse XF 24 analyzer. The concentration of oligomycin, FCCP and antimycin A are 1 μM, 0.6 μM and 3 μM, respectively (mean±s.e.m, n=3). […] HAP1-Skp2^+/+ and Skp2^−/− cells were treated with indicated SKPin C1 for 24 hours, followed by immunoblot analysis for indicated proteins. […] Statistical analysis, ** p<0.01. […] Statistical analysis, * p<0.05, ** p<0.01. […] HAP1-Skp2^+/+ and Skp2^−/− cells were treated with 1 μM SKPin C1 for 24 hours, followed by ECAR analysis by Seahorse XF 24 analyzer. […] HAP1-Skp2^+/+ and Skp2^−/− cells were treated with 1 μM SKPin C1 for 24 hours, followed by OCR analysis by Seahorse XF 24 analyzer. The concentration of oligomycin, FCCP and antimycin A are 1 μM, 0.6 μM and 3 μM, respectively (mean±s.e.m, n=3, ** p<0.01, *** p<0.001).
Cells were harvested and subjected to fractionation of cytoplasm (C), mitochondria (M), and nuclei (N) using Cell Fractionation kit (ab109719, Abcam). All fractions and the whole cell lysate (WCL) were subjected to immunoblot analysis for the indicated proteins, with tubulin, citrate synthase, and Histone H3 as markers of cytoplasm, mitochondria, and nucleus, respectively.

LNCaP cells = test: Colony formation assay, LNCaP cells; type: cell-based, human; conditions: 1500 cell/well, 0, 0.1, 0.3, or 1 μM for 7 days, fresh media another 3 weeks
Method: as §2, §3

HAP1 cells [6] = test: Seahorse XF24 extracellular acidification rate (ECAR) analysis, HAP1 cells; type: cell-based, human; conditions: 1 μM for 24 hours
Method: as §4, §5

IDH1 and IDH2 [7] = test: Immunoblot of IDH1 and IDH2 in HAP1-Skp2+/+ and Skp2-/- cells; type: cell-based, human; conditions: 24 hours
Method: as §6, §1

Row | Compound | IDH1 and IDH2 protein abundance (immunoblot) (IDH1 and IDH2 [1]) | Colony growth (22-Rv1 cells) | Effect on OCR in HAP1-Skp2+/+ and Skp2-/- cells (HAP1 cells [2]; 1 μM for 24 hours) | Effect on OCR in HAP1-IDH1-/-, HAP1-IDH2-/- and parental cells (HAP1 cells [2]; 3 μM for 24 hours) | IDH1 and IDH2 protein abundance (immunoblot) (IDH1 and IDH2 [3]) | IDH1 and IDH2 protein abundance (immunoblot) (IDH1 and IDH2 [4]) | IDH1 localization after treatment (IDH1 and IDH2 [5]) | IDH2 localization after treatment (IDH1 and IDH2 [5]) | IDH1 and IDH2 protein abundance in cell fractions (IDH1 and IDH2 [5]; cytoplasm/mitochondria/nuclei fractions) | Colony growth (LNCaP cells) | Effect on ECAR in HAP1-Skp2+/+ and Skp2-/- cells (HAP1 cells [6]) | Effect on IDH1 and IDH2 in HAP1-Skp2+/+ and Skp2-/- cells (IDH1 and IDH2 [7])
1 | CC(C)C[C@@H](C=O)NC(=O)[C@H](CC(C)C)NC(=O)[C@H](CC(C)C)NC(=O)OCc1ccccc1 [MG132] (Cbz-Leu-Leu-Leu-aldehyde) | elevated; also recorded: accumulation of IDH1 and IDH2 | – | – | – | – | – | – | – | – | – | – | –
2 | NS(=O)(=O)OC[C@@H]1C[C@@H](n2ccc3c(N[C@H]4CCc5ccccc54)ncnc32)C[C@@H]1O [MLN4924] | elevated; also recorded: accumulation of IDH1 and IDH2 | – | – | – | – | – | – | – | – | – | – | –
3 | O=C(O)COc1ccc(Br)cc1/C=C1\SC(=S)N(Cc2cccnc2)C1=O [SKPin C1] | – | blocks the colony growth | depletion of Skp2 abolishes the effect of SKPin C1 on OCR | depletion of endogenous IDH1 or IDH2 abolishes the effects of SKPin C1 on OCR | significantly stabilized both IDH1 and IDH2; also recorded: accumulated protein abundance of IDH1 and IDH2 | significantly stabilized both IDH1 and IDH2; also recorded: robust accumulation of IDH1 and IDH2 | mainly localized in the cytoplasmic fraction regardless of SKPin C1 treatment | detected in the cytoplasmic fraction | accumulated protein abundance of IDH1 and IDH2 in cytoplasm | blocks the colony growth | depletion of Skp2 abolishes the effect of SKPin C1 on ECAR | depletion of Skp2 abolishes the effect of SKPin C1 on IDH1 and IDH2
